{"source": "paper PMC8229181", "about": "“Chemical Characterization and Anti-Inflammatory Activity of Phytoconstituents from Swertia alata” (Plants, 2021)", "key": {"[1]": {"tested_on": "carrageenan induced rat paw edema", "experiment": "Carrageenan-induced rat paw edema method", "type": "in vivo, Wistar albino rat", "conditions": "for Increase in Paw Edema (Mean ± SEM): 3 h after inducing edema, rat", "source_text": "Carageenan was used to induced paw Edema in Wistar albino rat. Carrageenan induced paw edema is a standard assay for acute inflammation that is effectively employed to evaluate the phytoisolate against anti-inflammatory activity. Edema is produced by a sequential release of inflammatory mediators such as histamine, serotonin, kinnins, prostaglandins and bradykinins, which leads to fluid accumulation. Edema is characteristic of an acute inflammatory response. The release of histamine or serotonin occurs in the first phase (up to 1 h) and the second phase (over 1 h) is associated with the production of bradykinins. It is well known that the third phase of the edema induced by carrageenan, in which the edema reaches its highest volume, is characterized by the presence of prostaglandins and other compounds of slow reaction. Previous studies have shown that phytocompounds of S. alata play an important pharmacological role in inflammation. […] Moreover, several studies support that S. alata species have shown antioxidative effects. Inhibition of COX by S. alata leads to a decrease in all prostaglandin and thromboxane synthesis, which accounts for the beneficial anti-inflammatory and prevents ulcerogenic effects. […] Based on the antioxidant effect, SA4 may involve the inhibition of cyclooxygenase/prostaglandin-endoperoxide synthase (PGHS-1 and PGHS-2), and regulatory enzymes, involved in the biosynthesis of prostaglandin (PG) which is strongly implicated in inflammation.\nThe anti-inflammatory activity of isolated compound was evaluated on Wistar albino rat using carrageenan induced rat paw edema method as per the procedure described in earlier research. The animals were divided into groups, consisting of five rats in each group. The prepared compounds were administered orally at doses of 2, 4, 8 mg/kg body weight (oral gavage) and the volume of paw was determined plethysmographically (Ugo-Basile, Gemonio (VA), Italy). […] Carrageenan (0.1 mL, 1.0% w/v in 0.9% of normal saline) was injected after half an hour into the sub-plantar tissue of the rat’s hind paw. The paw volume was measured at hourly intervals for 3 h (0, 1, 2, and 3 h) and the percent inhibition of edema was calculated using the following formula:% inhibition = (1 − Vs/Vc × 100),(1) where, Vs = paw volume in sample treated group, Vc = paw volume in control group."}, "[2]": {"target": "T1, ovine COX-1 (Ovis aries, UniProt P05979)", "T1 construct": "purchased Cayman Chemicals Inc., Ann Arbor, MI, USA 560131", "T1 sequence (P05979 25-600)": "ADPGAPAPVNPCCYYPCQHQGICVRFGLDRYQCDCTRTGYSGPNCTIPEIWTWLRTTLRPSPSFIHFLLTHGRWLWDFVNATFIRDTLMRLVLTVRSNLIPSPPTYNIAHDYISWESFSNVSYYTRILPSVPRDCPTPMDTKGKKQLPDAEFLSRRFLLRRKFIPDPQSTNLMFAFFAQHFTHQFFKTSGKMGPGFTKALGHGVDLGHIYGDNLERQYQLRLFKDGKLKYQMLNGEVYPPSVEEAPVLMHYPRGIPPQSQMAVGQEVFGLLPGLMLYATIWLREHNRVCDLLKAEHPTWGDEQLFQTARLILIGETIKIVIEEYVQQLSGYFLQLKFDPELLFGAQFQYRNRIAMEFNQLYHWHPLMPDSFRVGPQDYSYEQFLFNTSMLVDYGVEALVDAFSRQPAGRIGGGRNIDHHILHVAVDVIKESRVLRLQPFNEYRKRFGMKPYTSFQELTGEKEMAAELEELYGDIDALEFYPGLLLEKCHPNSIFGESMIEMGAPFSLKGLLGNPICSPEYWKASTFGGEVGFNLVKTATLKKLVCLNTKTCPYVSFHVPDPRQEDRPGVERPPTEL", "experiment": "In vitro COX-1 inhibitory assay (enzyme immunoassay kit)", "type": "biochemical", "conditions": "ovine COX-1, enzyme immunoassay kit", "protocol": "(§1) The enzymatic assay was performed as per the manufacturer’s assay instructions and standard literature [48]. COX-1 and COX-2 enzymatic activity provides a simple, sensitive, and high-throughput adaptable method to detect the peroxidase activity of COX in biological samples or purified/crude enzyme preparations. The kit includes COX-1 and COX-2 specific inhibitors to differentiate the activity of COX-1 and COX-2 as well as other peroxidases, which may be present in the sample [49]."}, "[3]": {"target": "human recombinant COX-2 (Homo sapiens, UniProt P35354)", "sequence (P35354 18-604)": "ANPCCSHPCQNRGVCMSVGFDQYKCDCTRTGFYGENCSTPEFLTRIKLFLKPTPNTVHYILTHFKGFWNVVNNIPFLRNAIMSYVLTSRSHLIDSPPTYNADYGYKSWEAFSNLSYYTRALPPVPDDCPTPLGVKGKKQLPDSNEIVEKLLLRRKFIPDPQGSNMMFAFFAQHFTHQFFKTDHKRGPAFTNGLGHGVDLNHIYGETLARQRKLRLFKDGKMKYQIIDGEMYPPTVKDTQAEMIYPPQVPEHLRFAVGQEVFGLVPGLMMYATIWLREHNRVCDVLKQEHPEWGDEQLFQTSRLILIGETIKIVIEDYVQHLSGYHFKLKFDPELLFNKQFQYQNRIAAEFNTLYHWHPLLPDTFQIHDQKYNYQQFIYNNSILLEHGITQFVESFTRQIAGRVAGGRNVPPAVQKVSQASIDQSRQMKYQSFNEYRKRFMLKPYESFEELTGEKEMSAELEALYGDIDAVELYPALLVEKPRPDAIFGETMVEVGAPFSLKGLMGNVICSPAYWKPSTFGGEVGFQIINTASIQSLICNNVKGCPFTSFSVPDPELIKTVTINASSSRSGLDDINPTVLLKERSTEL", "experiment": "In vitro COX-2 inhibitory assay (enzyme immunoassay kit)", "type": "biochemical", "conditions": "human recombinant COX-2, enzyme immunoassay kit", "protocol": "as §1"}}, "note": "pIC50: −log10 of the molar value.", "data": [{"smiles": "COc1ccc2c(c1)c(CC(=O)O)c(C)n2C(=O)c1ccc(Cl)cc1", "note": "[Indomethacin, reference compound]", "values": [{"measurement": "Increase in Paw Edema (Mean ± SEM)", "setting": "[1]; reference drug, oral (8 mg/kg; 21 mg/kg elsewhere in the source)", "value": "0.15 ± 0.02", "unit": "mL"}]}, {"smiles": "CC1(C)CC[C@]2(C(=O)O)CC[C@]3(C)C(=CC[C@@H]4[C@@]5(C)CC[C@H](O)C(C)(C)[C@@H]5CC[C@]43C)[C@@H]2C1", "note": "[SA-1, oleanolic acid]", "values": [{"measurement": "Increase in Paw Edema (Mean ± SEM)", "setting": "[1]; 2 mg/kg oral", "value": "0.29 ± 0.00", "unit": "mL"}, {"measurement": "Increase in Paw Edema (Mean ± SEM)", "setting": "[1]; 4 mg/kg oral", "value": "0.27 ± 0.22", "unit": "mL"}, {"measurement": "Increase in Paw Edema (Mean ± SEM)", "setting": "[1]; 8 mg/kg oral", "value": "0.23 ± 0.01", "unit": "mL"}]}, {"smiles": "CC(C)C1CCC2(C(=O)O)CCC3(C)C(=CCC4C5(C)CCC(O)C(C)(C)C5CCC43C)C12", "note": "(stereo not shown) [SA-4, 3-hydroxylup-12-(13)-ene-17-carboxylic acid]", "values": [{"measurement": "Increase in Paw Edema (Mean ± SEM)", "setting": "[1]; 2 mg/kg oral", "value": "0.28 ± 0.00", "unit": "mL"}, {"measurement": "Increase in Paw Edema (Mean ± SEM)", "setting": "[1]; 4 mg/kg oral", "value": "0.26 ± 0.22", "unit": "mL"}, {"measurement": "Increase in Paw Edema (Mean ± SEM)", "setting": "[1]; 8 mg/kg oral", "value": "0.17 ± 0.01", "unit": "mL"}, {"measurement": "development of edema at the third hour after treatment", "setting": "[1]; 8 mg/kg, third hour, p < 0.05", "value": "significantly inhibited"}, {"measurement": "pIC50", "setting": "[2]", "value": 3.98}, {"measurement": "pIC50", "setting": "[3]", "value": 4.21}]}]}
